row,melting point [°C],SMILES
1,140 to 142,CCOC(=O)c1cc(/C=C/c2ccc3ccccc3n2)cn1C
2,110 to 111,COc1cc(OC)cc(-c2ncn(-c3cc(OC)c(OC)c(OC)c3)c2-c2ccc(OC)c(O)c2)c1
3,165 to 167,CCOC(=O)NC(=S)Nc1ccsc1C(=O)OC
4,> 200,Cc1nc(N2CCN(CC3CC3)C2=O)sc1C(=O)NCc1ccncc1
5,150,CC(=O)OC1CSC(Oc2cc(F)cnc2C#N)C(OC(C)=O)C1OC(C)=O (stereo not given)
6,125 to 127,Cn1nc(COc2cccc3c2CN(C2CCC(=O)NC2=O)C3=O)cc1CN1CCOCC1 (stereo not given)
7,212 to 214,NC(=O)CN1C(=O)COc2cc(F)ccc21
8,167 to 168,COc1cc(C(F)(F)F)nn1-c1ccc(NC(=O)c2ccccc2F)cc1
9,73 to 75,COC(CCCNC(=O)CCCCC(=O)NCCCC(OC)OC)OC
10,169 to 172,CCCCCC(CC(=O)Nc1cc(C(=O)Nc2ccncc2)ccc1C(C)(C)C)c1c(OC)cccc1OC (stereo not given)
11,244,NS(=O)(=O)c1ccc(-c2cn(-c3nc(-c4ccc(F)cc4)cc(C(F)(F)F)n3)cn2)s1
12,206 to 212,Cc1cccc2c1N(CC(=O)N1CC3CCC(CC3)C1)C(=O)C(NC(=O)c1cc3ccccc3[nH]1)N=C2C1CCCCC1 (racemic)
13,187 to 189,Cc1c(C)c2c3c(cc(C)c2[nH]c1=O)CC(CN=[N+]=[N-])O3 (stereo not given)
14,127 to 128,O=C1CCC(NC(=O)OCc2ccccc2)(C(=O)OCc2ccc([N+](=O)[O-])cc2)O1 (stereo not given)
15,173 to 174,CCCc1c(OCCCOc2cc(NC(=O)C(=O)O)c(C(F)(F)F)cc2Cl)ccc(C(C)=O)c1O
16,214 to 215,CC(C)c1nc(-c2ccc(S(C)(=O)=O)cc2)c(-c2ccc(F)cc2)[nH]1
17,149 to 152,O=C(NCCO)c1cnc(-c2ccccc2)s1
18,235 to 238,Cc1cnc2c(C(=O)NC=NO)c(Cl)ccc2c1
19,102 to 108,Cc1cc(C(=O)O)ccc1OCCNC(=O)C1Cc2ccccc2N1S(=O)(=O)c1ccc(-c2cccc(C(F)(F)F)c2)cc1 (stereo not given)
20,200 to 202,CCOC(=O)c1cc2c(C(F)(F)F)cc(OCC(=O)O)cc2n1C
21,79 to 80,FC(F)(F)c1cc(Br)c(OCc2ccccc2)c(OCc2ccccc2)c1
22,73,CCOC(=O)C(CCC(=O)c1ccc(F)cc1)(NC(C)=O)C(=O)OCC
23,177 to 178,Cn1cc(F)cnc1=O

row,melting point [°C],SMILES
1,208 to 210,ON=Cc1ncc(-c2ccccc2)o1
2,158 to 160,Cn1cc(CC(SSC(Cc2cn(C)c3ccccc23)C(=O)O)C(=O)O)c2ccccc21 (stereo not given)
3,159 to 160,COc1cccc(-c2cn(-c3ccccc3)c3ncnc(N)c23)c1
4,157 to 158,CCCNC(=O)CCn1c(CCC)nc2c(N)nc3ccccc3c21
5,213 to 214,CC(=O)NCc1cccc(Nc2nccc(-c3sc(N(C)c4cc(Cl)cc(Cl)c4)nc3C)n2)c1
6,61 to 63,CCCCCCCCCCOc1cc2oc3c(C(=O)OCC)cccc3c(=O)c2cc1CCC(=O)OCC
7,158 to 160,CC(C)CN1C(=O)C2CC(c3ccc(N)cc3)(C2)C1=O
8,83 to 86,O=S(=O)(Nc1cccc(CCOCc2noc(-c3ccc(C(F)(F)F)cc3)n2)c1)C(F)(F)F
9,139 to 140,CCC(CC)(NC(C)=O)c1ccc(CN2CCN(c3ccccc3)CC2)cc1
10,249 to 252,COc1ccc(-c2ccc(C(=O)O)cc2)c2c1OC(C)(C)C2
11,116,CCOP(=O)(Cc1cc(Cl)c(O)c(C(C)(C)C)c1)OCC
12,199,COC(=S)NC[C@H]1CN(c2cc(F)c(N3CNC(=O)C3)c(F)c2)C(=O)O1
13,126 to 129,Cc1cc2c(o1)c(-c1ccc(COC(=O)CCC(=O)O)o1)nn2Cc1ccccc1
14,166 to 169,CCOC(=O)C1=C(NC(=O)Nc2cc(OC(C)C)c(Cl)cc2F)CCC1
15,114 to 117,CC(=O)c1ccc(-c2ccc(Cl)c(Cl)c2)o1
16,216 to 218,Cc1nn(C)c2c(Nc3ccc(S(C)(=O)=O)cc3)nc(-c3ccc(F)cc3)nc12
17,62 to 63,COC1=C(Cc2ccc(Cl)cc2)C(=O)CC(C)(C)C1
18,146 to 148,CCCCn1c(=O)c2c(NC)n(C)nc2n(Cc2ccccc2)c1=O
19,95 to 97,Fc1ccc(SC(c2cc(F)ccc2F)c2cc(Cl)ncc2Cl)cc1 (stereo not given)
20,131 to 132,CCOCCCN1C=Cc2cc(S(N)(=O)=O)sc2S1(=O)=O
21,49 to 50,CNCCCCOc1ccc2c(ccn2-c2ccc(F)cc2)c1
22,118 to 120,C=CCN1CCc2c(sc(N)c2C(=O)c2ccc(Cl)cc2)C1
23,164 to 165,CCOC1=CC2=CCc3cc(C#N)ccc3[C@]2(Cc2ccccc2)CC1

row,melting point [°C],SMILES
1,91 to 92,CN(C)c1ccc(/C=C/c2c(F)ccc(F)c2F)cc1
2,185,CC(=O)Nc1cccnc1NC(=O)C(C)(C)Oc1cccc(Cl)n1
3,126 to 127,COc1ccc(-c2cn(CCCC#N)c3c(OC)ccc(OC)c3c2=O)cc1
4,133 to 134,COC(=O)c1cc(OCc2ccc3ccccc3n2)no1
5,129 to 130,O=C1c2ccccc2C(=O)N1CCON1CCNC1=Nc1c(Cl)cccc1Cl
6,142 to 144,CC(C)N(N)C(=O)c1ccc(-c2ccc(Cl)cc2)o1
7,193 to 195,O=C(NC1(C(=O)O)CCCCC1)C(CS)Cc1ccccc1 (stereo not given)
8,243 to 245,O=c1c2c(c3cccnc3n1-c1cccc(Cl)c1)OC(CO)C2 (stereo not given)
9,266 to 267,Cc1cc(Br)cc(C(=O)c2[nH]c(=O)[nH]c(=O)c2C(C)C)c1
10,215 to 216,COc1cc(N2CCN([C@H]3CC[C@H](c4cn(C)c5ccc(C#N)cc54)CC3)CC2)c2ncccc2c1Cl
11,253 to 256,O=C1CCC2=C1C(c1ccc(Br)cc1)C1=C(CCS1)N2 (stereo not given)
12,231 to 234,Cn1c(COc2ccc(C#N)cc2)nc2nc(C=O)ccc21
13,221 to 223,COc1ccc(-c2cc3cc(F)c(F)cc3[nH]2)cc1NC(=S)Nc1cccc(C(=O)O)c1
14,130 to 133,CC(C)=CCOc1ccc2c(=O)c(C)c(-c3ccccc3)oc2c1C(=O)C=Cc1ccc(Cl)cc1
15,135 to 140,Oc1nn(-c2ccccc2)nc1Cl
16,177 to 178,CCSC(=S)N1Cc2[nH]c3ccccc3c2CC1C(=O)O (stereo not given)
17,190 to 191,NC(=O)COc1ccccc1[N+](=O)[O-]
18,246,Cc1cc2n(c1)Cc1cc(Cl)ccc1N=C2N1CCN(CC(C)(C)C(=O)O)CC1
19,103 to 106,COC(OC)[C@@H]1CCCN1C(=O)[C@@H]1CCCN1C(=O)C[C@H]1CCc2ccccc2C1
20,245 to 247,CC(O)CCNc1cc(C(=O)O)cc(S(N)(=O)=O)c1Oc1ccccc1 (stereo not given)
21,94 to 95,O=c1cc(-c2ccccc2)oc2cc(OCCCCCN3CCC(O)CC3)ccc12
22,191,CCCS(=O)(=O)Cc1ccc(C(=O)Nc2ccc3cc(CN4CCCC4)cnc3c2C)cc1

row,SMILES,melting point [°C]
1,O=C1NC(=O)C(Br)(Cc2ccccc2)C(=O)N1,164 to 166
2,COCCOc1ccc(CCC2(O)CN3CCC2CC3)cc1 (stereo not given),116 to 117
